The text below walks through data of ChEMBL document CHEMBL1201862, “PubChem BioAssay data set” (2004).

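How tested: cells in 96-well plates exposed to compound for 48 hours at five concentrations. GI50 = concentration required for 50% inhibition of growth.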 Active and inactive are the calls of the source. No stated cut-off is given here; in the data, active = GI50 up to about 1.1 µM and inactive = higher.

Holding throughout (test): growth of human tumour cells (NCI), 48 h
Assay [1] deals with IGROV-1.
The test system of assay [2] is SF-539.
The subject of assay [3] is A549.
In assay [4] the test system is TK-10.
Assay [5] has as its system EKVX.
Assay [6] relates to HCT-15.
Assay [7] deals with UACC-257.
Assay [8] concerns NCI-H226.
The subject of assay [9] is COLO 205.
Assay [10] deals with K562.
The subject of assay [11] is HL-60.
Assay [12] has as its system HCC 2998.
Assay [13] has as its system ACHN.
Assay [14] concerns NCI-H522.
Assay [15] has as its system KM12.
The subject of assay [16] is OVCAR-4.
Assay [17] relates to UACC-62.
Assay [18] relates to SK-MEL-2.
Assay [19] concerns SNB-75.
Assay [20] deals with SK-OV-3.

Take `O=C(O)C(Cc1ccc(O)cn1)NC(=O)C(F)(F)F` (centres undefined): the GI50 is > 100 µM (inactive) in assay [1]; > 100 µM (inactive) in [2]; > 100 µM (inactive) in assay [3]; > 100 µM (inactive) in [4]; > 100 µM (inactive) in [5]; over 100 µM in [6]. Moreover, the GI50 in [7], in assay [8], in [9], in assay [10], in assay [11] and in [12] was > 100 µM (inactive) throughout. Further, the GI50 in assay [13], in assay [14] and in [15] was > 100 µM (inactive) in each case.

For `O=CCCn1[nH]c(=O)ccc1=O`, the GI50 in assay [1], in assay [16], in assay [2], in assay [3], in assay [4] and in [5] was > 100 µM (inactive) each time. Besides, the GI50 was over 100 µM in assay [6]; > 100 µM (inactive) in assay [17]; > 100 µM (inactive) in [7]; > 100 µM (inactive) in [8]; > 100 µM (inactive) in assay [18]; > 100 µM (inactive) in [10]. Also, the GI50 in [11], in assay [12], in [13] and in assay [19] was > 100 µM (inactive) each time.

In the case of `CN(N)c1nc(N)c(C#N)c(C#N)c1C#N`, the GI50 is > 10 µM (inactive) in assay [1]; > 10 µM (inactive) in [16]; > 10 µM (inactive) in [2]; > 10 µM (inactive) in assay [3]; > 10 µM (inactive) in [4]; over 10 µM in assay [6]. Moreover, the GI50 in [17], in assay [20], in assay [7], in assay [9], in [10] and in assay [11] was > 10 µM (inactive) throughout. The GI50 in assay [12], in [13], in assay [19], in assay [14] and in assay [15] was > 10 µM (inactive) in each case.

For the compound `COc1ccc(N[S+]([O-])c2ccc(-c3ccccc3)cc2)cc1` (centres undefined), the GI50 in assay [1] was 8.55 µM (inactive); in [2] it was > 100 µM (inactive); in assay [3], > 100 µM (inactive); in assay [4], > 100 µM (inactive); in [5], > 100 µM (inactive); in assay [6], over 100 µM. Also, the GI50 in assay [7], in assay [8], in [9], in [10], in assay [11] and in assay [12] was > 100 µM (inactive) in each case. The GI50 was > 100 µM (inactive) in [13], 22.3 µM (inactive) in [19], > 100 µM (inactive) in assay [14] and 70.3 µM (inactive) in [15].

Regarding `COC(=O)c1ccc(/C=C2\N=C(C)OC2=O)cc1`, the GI50 in assay [1], in assay [16], in assay [2], in assay [3], in assay [4] and in [5] was > 100 µM (inactive) in each case. For the same compound, the GI50 is over 100 µM in assay [6]; > 100 µM (inactive) in assay [17]; > 100 µM (inactive) in assay [20]; > 100 µM (inactive) in [8]; > 100 µM (inactive) in assay [9]; > 100 µM (inactive) in assay [10]. The GI50 in assay [11] was > 100 µM (inactive); in assay [12], > 100 µM (inactive); in assay [13] it was > 100 µM (inactive); in assay [19] it was > 100 µM (inactive); in [14], 59 µM (inactive); in assay [15], > 100 µM (inactive).

Consider `CN1C2CCC1CC(C)(O)C2` (centres undefined), for which the GI50 was > 100 µM (inactive) in assay [4]; > 100 µM (inactive) in assay [5]; over 100 µM in assay [6]; > 100 µM (inactive) in [7]; > 100 µM (inactive) in assay [8]; > 100 µM (inactive) in assay [9]. In addition, the GI50 in assay [18], in [10], in [11], in assay [12] and in [15] was > 100 µM (inactive) in each case.

For `CC1OC(O)CC(OC(=O)c2ccccc2)C1OC(=O)c1ccccc1` (centres undefined), the GI50 is 12.4 µM (inactive) in [1]; 15.1 µM (inactive) in assay [16]; 17.5 µM (inactive) in assay [2]; > 100 µM (inactive) in [3]; > 100 µM (inactive) in assay [4]; 15.3 µM in assay [6]. Moreover, the GI50 in assay [17] was 16.7 µM (inactive); in assay [7], 15.3 µM (inactive); in assay [9] it was 27 µM (inactive); in assay [10], 16.8 µM (inactive); in assay [11], 13.6 µM (inactive); in [12], 43.6 µM (inactive). The results for the GI50 in assay [13], in assay [14] and in assay [15] were 18.2 µM (inactive), > 100 µM (inactive) and 39.6 µM (inactive), respectively.

As for `CC1(C)[C@@H]2C[C@H]1C(Cc1ccccc1C[C@H]1c3cc(-c4ccccn4)ncc3[C@H]3C[C@@H]1C3(C)C)c1cc(-c3ccccn3)ncc12` (some centres undefined), the GI50 was 0.274 µM (active) in assay [1]; 0.716 µM (active) in assay [16]; 0.577 µM (active) in assay [2]; 0.371 µM (active) in assay [3]; 0.638 µM (active) in assay [4]; 0.461 µM (active) in assay [5]. Besides, the GI50 in assay [6] is 0.41 µM; in assay [17] it was 0.292 µM (active); in [20] it was 0.518 µM (active); in assay [7], 0.507 µM (active); in assay [9], 0.399 µM (active); in assay [10] it was 0.356 µM (active). Also, the GI50 in assay [11] is 0.232 µM (active); in assay [12], 0.982 µM (active); in [13] it was 0.204 µM (active); in assay [19], 0.679 µM (active); in [14] it was 0.448 µM (active); in assay [15] it was 0.389 µM (active).

In the case of `CCc1ccc(Nc2cc(=O)[nH]c(=S)n2C)cc1`, the GI50 in assay [1] was > 100 µM (inactive); in [16] it was > 100 µM (inactive); in assay [2], > 100 µM (inactive); in assay [3], > 100 µM (inactive); in [4], > 100 µM (inactive); in assay [5] it was 88.3 µM (inactive). Moreover, the GI50 in assay [6] was over 100 µM; in assay [17], > 100 µM (inactive); in [20], > 100 µM (inactive); in [7], > 100 µM (inactive); in [8], > 100 µM (inactive); in [9], > 100 µM (inactive). Besides, the GI50 in assay [18] is > 100 µM (inactive); in [10] it was > 100 µM (inactive); in assay [11] it was > 100 µM (inactive); in [19], 46.3 µM (inactive); in assay [14], > 100 µM (inactive); in [15] it was > 100 µM (inactive).
